Active and inactive are the calls of the source. The calls are words filed in the database; no cut-off is given here.
Legend:
[1] = Binding affinity to N-terminal His6-tagged recombinant full length human PI3K expressed in baculovirus infected Sf21 insect cells at 10 uM in presence of [gamma-33ATP] by scintillation counting based radiometry assay relative to control
[2] = Half life in Sprague-Dawley rat at 2 mg/kg, iv measured upto 24 hrs by LC-MS/MS analysis; type: ADME, organism-based; details: in vivo
[3] = Cmax in Sprague-Dawley rat at 10 mg/kg, po measured upto 24 hrs by LC-MS/MS analysis; type: ADME, organism-based; design: dose 10 mg/kg, time < 24 hrs, route po; details: in vivo
DOHH-2 [4] = experiment: Induction of cell cycle arrest in human DOHH-2 cells assessed as accumulation of cells at G0/G1 phase at 0.5 uM incubated for 24 hrs by PI staining based flow cytometry analysis (reference value: 23.47 %); type: functional
[5] = AUC(0 to t) in Sprague-Dawley rat at 2 mg/kg, iv measured upto 24 hrs by LC-MS/MS analysis; type: ADME, organism-based; design: time < 24 hrs, dose 2 mg/kg, route iv; details: in vivo
[6] = Tmax in Sprague-Dawley rat at 10 mg/kg, po measured upto 24 hrs by LC-MS/MS analysis; type: ADME, organism-based; details: in vivo
[7] = Tmax in Sprague-Dawley rat at 2 mg/kg, iv measured upto 24 hrs by LC-MS/MS analysis; type: ADME, organism-based; details: in vivo
[8] = Oral bioavailability in Sprague-Dawley rat at 5 mg/kg measured upto 24 hrs by LC-MS/MS analysis; type: ADME, organism-based; details: in vivo
[9] = biological target: T1, Phosphatidylinositol 4,5-bisphosphate 3-kinase catalytic subunit delta isoform (Homo sapiens, UniProt O00329); experiment: Inhibition of N-terminal His6-tagged recombinant full length human PI3Kdelta expressed in baculovirus infected Sf21 insect cells incubated for 30 mins by HTRF assay
T1 sequence (O00329 whole entry): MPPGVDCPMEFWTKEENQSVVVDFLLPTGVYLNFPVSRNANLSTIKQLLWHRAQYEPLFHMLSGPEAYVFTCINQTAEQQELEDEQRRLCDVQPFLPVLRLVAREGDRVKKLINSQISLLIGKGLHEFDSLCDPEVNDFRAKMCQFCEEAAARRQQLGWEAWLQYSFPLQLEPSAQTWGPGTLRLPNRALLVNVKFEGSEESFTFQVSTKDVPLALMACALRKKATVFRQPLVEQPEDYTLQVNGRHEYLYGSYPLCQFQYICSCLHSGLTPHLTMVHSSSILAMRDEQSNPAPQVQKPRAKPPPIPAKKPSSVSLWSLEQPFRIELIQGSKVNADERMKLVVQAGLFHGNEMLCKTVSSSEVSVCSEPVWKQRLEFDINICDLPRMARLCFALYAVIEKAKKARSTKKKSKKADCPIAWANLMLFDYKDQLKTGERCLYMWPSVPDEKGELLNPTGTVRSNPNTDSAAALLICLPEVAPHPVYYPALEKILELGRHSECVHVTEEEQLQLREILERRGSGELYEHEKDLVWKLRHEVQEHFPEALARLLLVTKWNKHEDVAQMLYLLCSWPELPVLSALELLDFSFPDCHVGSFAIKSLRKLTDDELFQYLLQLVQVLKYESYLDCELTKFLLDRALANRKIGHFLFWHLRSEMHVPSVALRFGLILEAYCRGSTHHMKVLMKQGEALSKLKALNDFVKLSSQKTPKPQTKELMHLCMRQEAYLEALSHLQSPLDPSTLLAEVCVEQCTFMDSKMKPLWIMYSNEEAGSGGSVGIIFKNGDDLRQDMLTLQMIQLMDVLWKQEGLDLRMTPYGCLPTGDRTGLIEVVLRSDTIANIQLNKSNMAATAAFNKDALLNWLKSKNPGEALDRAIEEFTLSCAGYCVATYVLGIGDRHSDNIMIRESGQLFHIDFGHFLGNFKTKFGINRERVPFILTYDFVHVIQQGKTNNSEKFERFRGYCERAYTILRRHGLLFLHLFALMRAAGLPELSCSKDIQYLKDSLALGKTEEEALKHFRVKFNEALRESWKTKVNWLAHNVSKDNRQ

SU-DHL-6 [10] = experiment: Antitumor activity against human SU-DHL-6 cells xenografted in NOD/SCID mouse assessed as reduction in tumor volume at 10 mg/kg, po measured every 2 days in presence of ibrutinib; type: functional, organism-based; details: time 2.0 day
[11] = Oral bioavailability in Sprague-Dawley rat at 10 mg/kg measured upto 24 hrs by LC-MS/MS analysis; type: ADME, organism-based; details: in vivo
SU-DHL-6 [12] = experiment: Induction of cell cycle arrest in human SU-DHL-6 cells assessed as accumulation of cells at S phase at 0.5 uM incubated for 24 hrs in presence of ibrutinib by PI staining based flow cytometry analysis (reference value: 24.18 %); type: functional
DOHH-2 [13] = experiment: Induction of cell cycle arrest in human DOHH-2 cells assessed as accumulation of cells at G2/M phase at 0.5 uM incubated for 24 hrs by PI staining based flow cytometry analysis (reference value: 21.42 %); type: functional
SU-DHL-6 [14] = experiment: Antitumor activity against human SU-DHL-6 cells xenografted in po dosed NOD/SCID mouse assessed as tumor volume suppression measured every 2 days; type: functional, organism-based; details: time 2.0 day, DDE = dose-dependent effect
[15] = biological target: Phosphatidylinositol 4,5-bisphosphate 3-kinase catalytic subunit alpha isoform (Homo sapiens, UniProt P42336); experiment: Inhibition of N-terminal His6-tagged recombinant full length human PI3Kalpha expressed in baculovirus infected Sf21 insect cells incubated for 30 mins by HTRF assay
SU-DHL-6 [16] = experiment: Induction of cell cycle arrest in human SU-DHL-6 cells assessed as accumulation of cells at G2/M phase at 0.5 uM incubated for 24 hrs in presence of ibrutinib by PI staining based FACScan flow cytometry analysis (reference value: 20.21 %); type: functional
DOHH-2 [17] = experiment: Induction of apoptosis in human DOHH-2 cells assessed as viable cells at 2 uM incubated for 48 hrs by annexin V-FITC and PI staining based flow cytometry analysis (reference value: 95.4 %); type: functional; details: read-out: Activity
Homo sapiens = species on record: Homo sapiens; experiment: Selectivity ratio of IC50 for N-terminal His6-tagged recombinant full length human PI3Kbeta expressed in baculovirus infected Sf21 insect cells to IC50 for N-terminal His6-tagged recombinant full length human PI3Kgamma expressed in baculovirus infected Sf21 insect cells
SU-DHL-6 [18] = experiment: Induction of apoptosis in human SU-DHL-6 cells assessed as necrotic cells at 1.5 uM incubated for 48 hrs by annexin V-FITC and PI staining based flow cytometry analysis (reference value: 0.32%); type: functional
[19] = Clearance in Sprague-Dawley rat at 2 mg/kg, iv measured upto 24 hrs by LC-MS/MS analysis; type: ADME, organism-based; details: in vivo
SU-DHL-6 [20] = experiment: Induction of apoptosis in human SU-DHL-6 cells assessed as necrotic cells at 1.5 uM incubated for 48 hrs in presence of ibrutinib by annexin V-FITC and PI staining based flow cytometry analysis (reference value: 0.32%); type: functional
[21] = Cmax in Sprague-Dawley rat at 5 mg/kg, iv measured upto 24 hrs by LC-MS/MS analysis; type: ADME, organism-based; design: time < 24 hrs, dose 5 mg/kg, route iv; details: in vivo
[22] = AUC(0 to t) in Sprague-Dawley rat at 5 mg/kg, iv measured upto 24 hrs by LC-MS/MS analysis; type: ADME, organism-based; design: time < 24 hrs, dose 5 mg/kg, route iv; details: in vivo
SU-DHL-6 [23] = experiment: Induction of cell cycle arrest in human SU-DHL-6 cells assessed as accumulation of cells at S phase at 0.5 uM incubated for 24 hrs by PI staining based FACScan flow cytometry analysis (reference value: 24.18 %); type: functional

Chain of Phosphatidylinositol 4,5-bisphosphate 3-kinase catalytic subunit alpha isoform (P42336 whole entry, canonical isoform): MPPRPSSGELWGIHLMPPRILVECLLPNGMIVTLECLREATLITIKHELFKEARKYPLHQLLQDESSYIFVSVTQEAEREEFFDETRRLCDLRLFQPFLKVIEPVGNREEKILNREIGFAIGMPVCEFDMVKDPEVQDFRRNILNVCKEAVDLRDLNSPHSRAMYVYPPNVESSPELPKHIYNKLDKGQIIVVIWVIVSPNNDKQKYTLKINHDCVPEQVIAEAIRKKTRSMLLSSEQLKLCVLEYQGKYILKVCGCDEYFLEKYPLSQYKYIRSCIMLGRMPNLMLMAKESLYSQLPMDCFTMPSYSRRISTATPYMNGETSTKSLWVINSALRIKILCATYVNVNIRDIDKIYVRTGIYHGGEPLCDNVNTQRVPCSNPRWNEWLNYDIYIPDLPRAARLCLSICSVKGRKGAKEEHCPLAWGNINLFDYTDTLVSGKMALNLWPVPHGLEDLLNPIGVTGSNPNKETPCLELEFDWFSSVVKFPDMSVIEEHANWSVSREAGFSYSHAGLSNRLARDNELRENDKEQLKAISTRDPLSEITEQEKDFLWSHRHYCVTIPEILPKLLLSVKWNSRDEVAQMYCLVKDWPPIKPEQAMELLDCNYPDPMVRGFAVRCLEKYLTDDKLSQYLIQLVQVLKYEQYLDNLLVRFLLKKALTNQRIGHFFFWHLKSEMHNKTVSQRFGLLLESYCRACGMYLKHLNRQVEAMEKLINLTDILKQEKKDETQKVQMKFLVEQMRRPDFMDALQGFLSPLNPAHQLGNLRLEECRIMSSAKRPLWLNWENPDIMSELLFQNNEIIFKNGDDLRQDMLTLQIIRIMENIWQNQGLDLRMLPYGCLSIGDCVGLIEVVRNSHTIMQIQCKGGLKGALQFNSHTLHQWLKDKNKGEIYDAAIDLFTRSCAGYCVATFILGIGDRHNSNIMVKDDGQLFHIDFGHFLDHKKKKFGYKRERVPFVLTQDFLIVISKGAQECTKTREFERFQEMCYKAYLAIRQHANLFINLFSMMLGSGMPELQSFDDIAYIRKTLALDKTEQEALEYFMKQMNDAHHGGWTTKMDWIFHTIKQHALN

With C[C@H]1CC[C@@H](c2nc3cccc(Cl)c3c(=O)n2-c2cccnc2)N1c1nc(N)nc(N)c1C#N the Activity [1] was “Active”, the half-life [2] was 43.8 min and the Cmax [3] was 785 ng/mL. The Activity (DOHH-2 [4]) was 36.44%, the AUC(0-t) at 24 h [5] was 1150 ng·h/mL and the Tmax [6] was 49.8 min. For the same molecule, the Tmax [7] was 1.2 h, the bioavailability [8] was 126% and the IC50 [9] was 1000 nM. The Activity (SU-DHL-6 [10]) was “Active”, the bioavailability [11] was 57% and the Activity (SU-DHL-6 [12]) was 15.65%. For the same molecule, the Activity (DOHH-2 [13]) was 12.82%, the Activity (SU-DHL-6 [14]) was “Dde” and the IC50 [15] was 794 µM. For the same molecule, the Activity (SU-DHL-6 [16]) was 4.62%, the viability at 2 µM (DOHH-2 [17]) was 60.6% and the Ratio IC50 (Homo sapiens) was 84. The Activity (SU-DHL-6 [18]) was 0.18%, the clearance [19] was 30.5 mL/min/kg and the Activity (SU-DHL-6 [20]) was 0.25%. The Cmax [21] was 860 ng/mL, the AUC(0-t) at 24 h [22] was 6810 ng·h/mL and the Activity (SU-DHL-6 [23]) was 26.15%.
